PubChem BioAssay (NCI)
Values joined by “and” are separate entries in the source; they are usually repeats but may differ in a detail not shown here. Equal values may be shown once.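 Dose response: 5 concentrations. Exposure: 48 h. Format: 96-well plates. Endpoint: linear interpolation; highest concentration if not reached. GI50 is the concentration that inhibits growth by half. TGI is the concentration that stops growth completely.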

How the values were obtained:
Experiment in all cases: NCI anticancer screen, dose series, 48 h
[1] = system: 786-0 renal
[2] = system: A498 renal
[3] = system: A549 NSCLC
[4] = system: ACHN renal
[5] = system: BT-549 breast
[6] = system: CAKI-1 renal
[7] = system: CCRF-CEM leukemia
[8] = system: COLO 205 colon
[9] = system: DU-145 prostate
[10] = system: EKVX NSCLC
[11] = system: HCC-2998 colon
[12] = system: HCT-116 colon
[13] = system: HCT-15 colon
[14] = system: HL-60(TB) leukemia
[15] = system: HOP-62 NSCLC
[16] = system: HOP-92 NSCLC
[17] = system: HS 578T breast
[18] = system: HT29 colon
[19] = system: IGROV1 ovarian
[20] = system: K-562 leukemia
[21] = system: KM12 colon
[22] = system: LOX IMVI melanoma
[23] = system: MALME-3M melanoma
[24] = system: MCF7 breast
[25] = system: MDA-MB-231 breast
[26] = system: MDA-MB-435
[27] = system: MOLT-4 leukemia
[28] = system: NCI-H226 lung
[29] = system: NCI-H23 lung
[30] = system: NCI-H460 lung
[31] = system: NCI-H522 lung
[32] = system: NCI/ADR-RES ovarian
[33] = system: OVCAR-3 ovarian
[34] = system: OVCAR-4 ovarian
[35] = system: OVCAR-5 ovarian
[36] = system: OVCAR-8 ovarian
[37] = system: PC-3 prostate
[38] = system: RPMI-8226 leukemia
[39] = system: RXF 393 renal
[40] = system: SF-268 CNS
[41] = system: SF-295 CNS
[42] = system: SF-539 CNS
[43] = system: SK-MEL-2 melanoma
[44] = system: SK-MEL-28 melanoma
[45] = system: SK-MEL-5 melanoma
[46] = system: SK-OV-3 ovarian
[47] = system: SN12C renal
[48] = system: SNB-19 CNS
[49] = system: SNB-75 CNS
[50] = system: SR leukemia
[51] = system: SW-620 colon
[52] = system: T-47D breast
[53] = system: TK-10 renal
[54] = system: U251 CNS
[55] = system: UACC-257 melanoma
[56] = system: UACC-62 melanoma
[57] = system: UO-31 renal

For `CN(C)c1ccc2nc3ccc(N)cc3[n+](-c3ccccc3)c2c1`, the GI50 [1] was 10.9 µM and 2.19 µM, the TGI [1] was 33.6 µM and 49.2 µM and the GI50 [2] was 3.94 µM and 19.6 µM. The TGI [2] was 37.8 µM and > 100 µM, the TGI [3] was > 100 µM and 11.6 µM and the TGI [4] was 76.9 µM and 31.8 µM. For the same molecule, the GI50 [5] was 2.46 µM and 0.584 µM, the TGI [5] was 14.2 µM and 61.9 µM and the TGI [6] was 52.8 µM and 7.47 µM. The GI50 [7] was 4.09 µM and 1.25 µM, the TGI [7] was > 100 µM and 21.7 µM and the GI50 [8] was 0.759 µM and 0.598 µM. For the same molecule, the TGI [8] was 2.99 µM and 2.75 µM, the GI50 [9] was 5.32 µM and 1.95 µM and the TGI [9] was 33 µM and 3.96 µM. The GI50 [10] was 1.39 µM and 0.87 µM, the TGI [10] was 23.1 µM and 23 µM and the GI50 [11] was 1.87 µM and 9.25 µM. For the same molecule, the TGI [11] was 16.1 µM and 41.8 µM, the GI50 [12] was 2.89 µM and 0.42 µM and the TGI [12] was 20.4 µM and 2.08 µM. The TGI [13] was > 100 µM and 24 µM, the GI50 [14] was 0.578 µM and the TGI [14] was 15.9 µM. For the same molecule, the GI50 [15] was 2.31 µM and 2.92 µM, the TGI [15] was 18.9 µM and 14.4 µM and the GI50 [16] was 1.85 µM. The TGI [16] was 8.24 µM, the GI50 [17] was 3.24 µM and 2.93 µM and the TGI [17] was 28 µM and 56.2 µM. The GI50 [18] was 2.74 µM and 3.19 µM, the TGI [18] was 16.1 µM and 16.2 µM and the GI50 [19] was 3.31 µM and 1.74 µM. For the same molecule, the TGI [19] was 39.3 µM and 5.53 µM, the GI50 [20] was 1.51 µM and 0.424 µM and the TGI [20] was > 100 µM and 68.7 µM. The GI50 [21] was 1.75 µM and 1.51 µM, the TGI [21] was 10.2 µM and 26.1 µM and the GI50 [22] was 2.65 µM and 0.515 µM. The TGI [22] was 18.3 µM, the GI50 [23] was 1.57 µM and 0.56 µM and the TGI [23] was 10.1 µM and 4.59 µM. For the same molecule, the GI50 [24] was 0.519 µM and 0.369 µM, the TGI [24] was 30.3 µM and 3.15 µM and the GI50 [25] was 4.61 µM and 0.492 µM. For the same molecule, the TGI [25] was 31.5 µM and 17.1 µM, the GI50 [26] was 1.79 µM and 1.09 µM and the TGI [26] was 8.77 µM and 2.91 µM. For the same molecule, the GI50 [27] was 5.14 µM and 0.703 µM, the GI50 [28] was 8.77 µM and 13 µM and the TGI [28] was 42 µM and 70.1 µM. The GI50 [29] was 1.73 µM and 0.461 µM, the TGI [29] was 19.8 µM and 5.1 µM and the GI50 [30] was 2.53 µM and 1.9 µM. The TGI [30] was 11.4 µM and 11.2 µM, the GI50 [31] was 1.72 µM and the TGI [31] was 10.5 µM. The TGI [32] was > 100 µM and 11.9 µM, the GI50 [33] was 0.474 µM and 0.317 µM and the TGI [33] was 9.02 µM and 12.7 µM. The GI50 [34] was 0.396 µM and 0.28 µM, the GI50 [35] was 13.3 µM and the TGI [35] was greater than 81.7 µM. The GI50 [36] was 2.02 µM and 1.07 µM, the TGI [36] was > 66 µM and 7.69 µM and the TGI [37] was 31.2 µM and 3.22 µM. The GI50 [38] was 0.482 µM and 0.177 µM, the TGI [38] was 7.4 µM and 10 µM and the GI50 [39] was 16.3 µM and 10.8 µM. The TGI [39] was 67.5 µM and 26.6 µM, the GI50 [40] was 1.94 µM and 1.7 µM and the TGI [40] was 20.9 µM and 19.7 µM. For the same molecule, the GI50 [41] was 1.75 µM and 0.584 µM, the TGI [41] was 7.41 µM and 24.4 µM and the GI50 [42] was 2.61 µM and 0.332 µM. The TGI [42] was 13.5 µM and 6.59 µM, the GI50 [43] was 2.39 µM and 1.74 µM and the TGI [43] was 6.16 µM and 11.1 µM. For the same molecule, the GI50 [44] was 3.76 µM and 7.38 µM, the TGI [44] was 20 µM and 37.7 µM and the GI50 [45] was 1.07 µM and 0.255 µM. For the same molecule, the TGI [45] was 3.02 µM and 0.827 µM, the GI50 [46] was 18.2 µM and 4.73 µM and the TGI [46] was 67.3 µM and > 100 µM. For the same molecule, the GI50 [47] was 1.92 µM and 1.34 µM, the TGI [47] was 46 µM and 10.4 µM and the GI50 [48] was 1.69 µM. The TGI [48] was 47.1 µM, the GI50 [49] was 2.44 µM and 2.8 µM and the TGI [49] was 17 µM and 9.52 µM. For the same molecule, the GI50 [50] was 2.44 µM and 0.533 µM, the GI50 [51] was 2.98 µM and 1.18 µM and the TGI [51] was 31 µM and 12.2 µM. The GI50 [52] was 0.457 µM and 0.662 µM, the TGI [52] was 6.5 µM and 21 µM and the GI50 [53] was 3.87 µM and 2.48 µM. The TGI [53] was 27.4 µM and 28.4 µM, the GI50 [54] was 1.35 µM and 0.64 µM and the TGI [54] was 34.4 µM and 6.5 µM. For the same molecule, the GI50 [55] was 0.757 µM and 0.705 µM, the TGI [55] was > 25.2 µM and 3.33 µM and the GI50 [56] was 2.04 µM and 1.85 µM. For the same molecule, the TGI [56] was 13 µM and 10.3 µM, the GI50 [57] was 23.6 µM and 4.98 µM and the TGI [57] was > 100 µM and 24.8 µM.
